According to ChEMBL document CHEMBL3868622, “Development of 1-aryl-3-furanyl/thienyl-imidazopyridine templates for inhibitors against hypoxia inducible factor (HIF)-1 transcriptional activity” (Bioorg Med Chem Lett, 2016):

Target: Hypoxia inducible factors; HIF-1-alpha, HIF-2-alpha (Homo sapiens, UniProt Q16665+Q99814)
Assay: Inhibition of hypoxia-induced HIF1 transcriptional activity in human HeLa cells measured after 12 hrs by luciferase reporter gene assay
Type: cell-based

Row | SMILES | IC50 [µM]
1 | OCc1ccc(-c2nc(-c3ccccc3)c3ccccn23)s1 | 3.7
2 | OCc1ccc(-c2nc(-c3ccncc3)c3ccccn23)s1 | 9.1
3 | OCc1ccc(-c2nc(-c3ccc(C(F)(F)F)cc3)c3ccccn23)o1 | 17
4 | OCc1ccc(-c2nc(Cc3ccccc3)c3ccccn23)o1 | 56
5 | OCc1ccc(-c2nc(-c3ccccc3CO)c3ccccn23)s1 | 9.4
6 | Cc1ccc(-c2nc(-c3ccc(CO)o3)n3ccccc23)cc1 | 39
7 | OCc1ccc(-c2nc(-c3cc(C(F)(F)F)cc(C(F)(F)F)c3)c3ccccn23)o1 | 25
8 | N#Cc1ccc(-c2nc(-c3ccc(CO)o3)n3ccccc23)cc1 | 7.4

Other lines, results leading:

Row | IC50 [µM] | SMILES
9 | 75 | COc1ccccc1-c1nc(-c2ccc(CO)o2)n2ccccc12
10 | 6.5 | OCc1ccc(-c2nc(-c3ccccc3CO)c3ccccn23)o1
11 | 61 | COc1ccc(-c2nc(-c3ccc(CO)o3)n3ccccc23)cc1
12 | 70 | OCc1ccc(-c2nc(-c3ccccc3)c3ccccn23)o1
